Data set [1] can be described thus: Covalent reactivity with N-alpha-acetyl-L-lysine assessed as half life. It counts as physicochemical. The following applies: N-alpha-acetyl-L-lysine solution.
Data set [2] in a line: GSH reactivity in phosphate buffer assessed as half life at 20 uM after 1 hr in presence of L-glutathione by LC-MS/MS analysis. It counts as physicochemical. The following applies: phosphate buffer with L-glutathione.
Data set [3] in a line: Half life in human whole blood. Type of data set: ADME, tissue-based.
A short description of data set [4]: Half life in rat whole blood. It counts as ADME, tissue-based.
The nature of data set [5]: Apparent permeability across apical to basolateral side in RRCK cells after […] by HPLC analysis. Type of data set: ADME, cell-based, Canis lupus familiaris, MDCKII-LE. The conditions noted are these: dog, MDCK.
A short description of data set [6]: Drug level in human liver microsomes treated with 10 uM N-(6-(7H-Pyrrolo[2,3-d]pyrimidin-4-yl)-2,3-dihydro-1H-inden-1-yl)cyanamide (11), (S)-N-(6-(7H-Pyrrolo[2,3-d]pyrimidin-4-yl)-2,3-dihydro-1H-inden-1-yl)cyanamide assessed as compound formation at 10 uM in presence of GSH and NADPH after 15 to 45 mins by LC-MS/MS analysis. It counts as ADME, microsome.
The nature of data set [7]: Clearance in rat at 1 mg/kg, iv administered as single dose by LC-MS/MS analysis. Type of data set: ADME, organism-based. The following applies: in vivo.
Data set [8] is described as follows: Clearance in rat at 1 mg/kg, iv co-administered with CYP450 inhibitor ABT by LC-MS/MS analysis. Type of data set: ADME, organism-based. The conditions noted are these: in vivo.
Data set [9] in a line: AUC in rat at 3 mg/kg, po administered as single dose by LC-MS/MS analysis. Type of data set: ADME, organism-based. The following applies: in vivo.
The nature of data set [10]: Half life in rat at 1 mg/kg, iv co-administered with CYP450 inhibitor ABT by LC-MS/MS analysis. Type of data set: ADME, organism-based. The following applies: in vivo.
Data set [11] can be described thus: Apparent intrinsic clearance in human liver microsomes. The following applies: read-out: CLH(app). It counts as ADME, microsome.
Data set [12] in a line: Half life in rat at 1 mg/kg, iv administered as single dose by LC-MS/MS analysis. Type of data set: ADME, organism-based. The following applies: in vivo.
Data set [13] in a line: Volume of distribution at steady state in rat at 1 mg/kg, iv co-administered with CYP450 inhibitor ABT by LC-MS/MS analysis. The following applies: in vivo, read-out: Vdss. It counts as ADME, organism-based.
Data set [14] can be described thus: Drug metabolism in human liver microsomes assessed as 2-((R)-3-(N-((S)-6-(7H-pyrrolo[2,3-d]pyrimidin-4-yl)-2,3-dihydro-1H-inden-1-yl)carbamimidoylthio)-2-aminopropanamido)acetic acid metabolite formation at 10 uM in presence of GSH and NADPH after 15 to 45 mins by LC-MS/MS analysis. It counts as ADME, microsome.
A short description of data set [15]: Apparent intrinsic clearance in rat liver microsomes. Type of data set: ADME, microsome. The conditions noted are these: read-out: CLH(app).
Data set [16] can be described thus: Oral bioavailability in rat at 3 mg/kg administered as single dose by LC-MS/MS analysis. It counts as ADME, organism-based. The following applies: in vivo.
Data set [17] in a line: AUC in rat at 1 mg/kg, iv co-administered with CYP450 inhibitor ABT by LC-MS/MS analysis. Type of data set: ADME, organism-based. The following applies: in vivo.
Data set [18] can be described thus: Drug metabolism in human liver microsomes assessed as (S)-4-amino-6-(3-cyanamido-2,3-dihydro-1H-inden-5-yl)pyrimidine-5-carboxylic acid metabolite formation at 10 uM in presence of GSH and NADPH after 15 to 45 mins by LC-MS/MS analysis. It counts as ADME, microsome.
The nature of data set [19]: Volume of distribution at steady state in rat at 1 mg/kg, iv administered as single dose by LC-MS/MS analysis. Type of data set: ADME, organism-based. The following applies: in vivo, read-out: Vdss.
Data set [20] in a line: AUC in rat at 1 mg/kg, iv administered as single dose by LC-MS/MS analysis. It counts as ADME, organism-based. The following applies: in vivo.
A short description of data set [21]: Drug metabolism in human liver microsomes assessed as (S)-1-(6-(7H-pyrrolo[2,3-d]pyrimidin-4-yl)-2,3-dihydro-1H-inden-1-yl)urea metabolite formation at 10 uM in presence of GSH and NADPH after 15 to 45 mins by LC-MS/MS analysis. Type of data set: ADME, microsome.

Turning to `C1CCNCC1` [PIPERIDINE], the half-life in data set [1] is 11.1 h.
Still for that read-out and setting: for `C1CCNC1` [PYRROLIDINE] the value was 7.7 h.
For `COCCc1c[nH]c2ncnc(-c3ccc4c(c3)C(NC#N)CC4)c12` (stereo unspecified), the half-life at 20 µM in data set [2] was 1.23 h.
Regarding `C=CC(=O)N1CCOc2ccc(-c3ncnc4[nH]cc(CCOC)c34)cc21`, the figures for the half-life in data set [3] and in data set [4] were 0.0833 h and 0.0667 h, respectively. Besides, the half-life at 20 µM in data set [2] worked out at 0.05 h.
Regarding `C[C@@]1(NC#N)CCc2ccc(-c3ncnc4[nH]ccc34)cc21`, the half-life at 20 µM in data set [2] is more than 2 h.
With `COCCc1c[nH]c2ncnc(-c3ccc4c(c3)N(C#N)CC(F)(F)O4)c12`, the half-life at 20 µM in [2] was more than 2 h. Moreover, in data set [5], the Papp A→B at […] was 14 ×10⁻⁶ cm/s.
For the compound `NC(=O)N[C@H]1CCc2ccc(-c3ncnc4[nH]ccc34)cc21`, the Drug metabolism result in [6] was “Metabolite_Detected”.
Turning to `CS(=O)(=O)N[C@@H]1C[C@H](NC#N)c2cc(-c3ncnc4[nH]ccc34)ccc21`, the half-life came out at 3.47 h in data set [3] and 0.517 h in [4]. Further, the half-life at 20 µM in data set [2] came to 0.383 h. Besides, the apparent permeability from apical to basolateral (Papp A→B) at […] in [5] was less than 1 ×10⁻⁶ cm/s.
In the case of `Cn1nccc1S(=O)(=O)N[C@@H]1C[C@H](NC#N)c2cc(-c3ncnc4[nH]ccc34)ccc21`, the half-life at 20 µM in data set [2] amounted to 0.367 h.
Regarding `N#CN[C@H]1C[C@@H](NS(=O)(=O)c2cccc(F)c2)c2ccc(-c3ncnc4[nH]ccc34)cc21`, in data set [2], the half-life at 20 µM came to 1.33 h. Besides, in data set [5], the Papp A→B at […] came to 10 ×10⁻⁶ cm/s.
As to `C=CC(=O)Nc1cccc(-c2ncnc3[nH]cc(CCOC)c23)c1`, the half-life in [3] stood at 2.47 h; in data set [4], 0.483 h. Besides, in [2], the half-life at 20 µM worked out at 0.933 h. Moreover, the Papp A→B at […] in [5] worked out at 10 ×10⁻⁶ cm/s. Further, in data set [7], the clearance came out at 455 mL/min/kg.
Consider `N#CN[C@H]1C[C@@H](NS(=O)(=O)c2cccc(C#N)c2)c2ccc(-c3ncnc4[nH]ccc34)cc21`, for which, in data set [2], the half-life at 20 µM amounted to 0.4 h. The apparent permeability from apical to basolateral (Papp A→B) at […] in data set [5] was determined as 6 ×10⁻⁶ cm/s.
For the compound `N#CN[C@H]1CCc2ccc(-c3ncnc(N)c3C(=O)O)cc21`, the Drug metabolism result in data set [6] is on record as “Metabolite_Detected”.
For the compound `COCCS(=O)(=O)N[C@@H]1C[C@H](NC#N)c2cc(-c3ncnc4[nH]ccc34)ccc21`, the half-life at 20 µM in [2] came out at 1.17 h.
Turning to `N#CN[C@H]1CCc2ccc(-c3ncnc4[nH]cc(-c5ccccc5)c34)cc21`, the half-life in data set [3] and in data set [4] was 1.02 h throughout. For the same compound, the half-life at 20 µM in [2] is 1.57 h. In addition, the apparent permeability from apical to basolateral (Papp A→B) at […] in [5] turned out to be 2 ×10⁻⁶ cm/s.
`CN(C#N)C1CCc2ccc(-c3ncnc4[nH]ccc34)cc21` (stereo unspecified): the half-life at 20 µM in data set [2] is more than 3.17 h.
As for `C1CNC1` [AZETIDINE], the half-life in data set [1] was 2.59 h.
`N#CN[C@H]1C[C@H](O)c2ccc(-c3ncnc4[nH]ccc34)cc21`: the half-life at 20 µM in data set [2] stood at 0.667 h.
As for `C[C@]1(NC#N)CCc2ccc(-c3ncnc4[nH]ccc34)cc21`, the half-life in data set [3] and in data set [4] was more than 6 h each time. Also, the half-life at 20 µM in data set [2] is more than 2 h. For the same compound, in data set [5], the Papp A→B at […] was found to be 19 ×10⁻⁶ cm/s.
With `COCCc1c[nH]c2ncnc(-c3ccc4c(c3)C(NC#N)CCO4)c12` (stereo unspecified), in [2], the half-life at 20 µM stood at 1.17 h.
In the case of `N#CN[C@H]1CCc2ccc(-c3ncnc4[nH]cc(-c5cccc(CO)c5)c34)cc21`, the half-life in [3] is 0.8 h; in data set [4], 0.983 h. In addition, the half-life at 20 µM in [2] is 1.15 h. Further, in data set [5], the Papp A→B at […] was 4 ×10⁻⁶ cm/s.
For `COCCc1c[nH]c2ncnc(-c3ccc4c(c3)N(C#N)CCO4)c12`, the half-life at 20 µM in data set [2] is more than 3.17 h.
Same read-out and setting: for `COc1ccc(S(=O)(=O)N[C@@H]2C[C@H](NC#N)c3cc(-c4ncnc5[nH]ccc45)ccc32)cc1` the value was 0.583 h; for `N#CN[C@H]1CCOc2ccc(-c3ncnc4[nH]ccc34)cc21`, 0.683 h.
Same read-out and setting: then `N#CN[C@@H]1CCc2ccc(-c3ncnc4[nH]ccc34)cc21`, with 1.35 h.
Same read-out and setting: for `C[C@@H]1Cc2ccc(-c3ncnc4[nH]ccc34)cc2[C@@H]1NC#N` the value was 1.58 h.
As to `N#CN[C@H]1CCc2ccc(-c3ncnc4[nH]ccc34)cc21`, the clearance in data set [8] worked out at 34 mL/min/kg; in data set [7], 36 mL/min/kg. The half-life in data set [3] was more than 6 h; in [4] it was 2.5 h; in data set [10], 0.75 h; in data set [12], 0.27 h. Besides, the half-life at 20 µM in data set [2] came out at 1.15 h. The AUC in data set [9] turned out to be 240 ng·h/mL; in [17], 488 ng·h/mL; in [20] it was 466 ng·h/mL. Besides, in [5], the Papp A→B at […] was 11 ×10⁻⁶ cm/s. The microsomal CLint was found to be 50 µL/min/mg in data set [11] and 100 µL/min/mg in [15]. Further, the Vd is 0.63 L/kg in [13] and 0.35 L/kg in data set [19]. In addition, the Drug metabolism result in [14], in data set [18] and in [21] was “Metabolite_Detected” throughout. This compound also displayed a bioavailability in [16] of 16%.
With `CC1(NC#N)CCc2ccc(-c3ncnc4[nH]ccc34)cc21` (stereo unspecified), the half-life at 20 µM in data set [2] was more than 2 h.
As to `N#CN[C@H]1C[C@@H](O)c2ccc(-c3ncnc4[nH]ccc34)cc21`, the half-life in data set [3] came out at 5.65 h; in data set [4] it was 0.333 h. Also, the half-life at 20 µM in data set [2] stood at 0.467 h. Besides, the Papp A→B at […] in [5] was found to be 2 ×10⁻⁶ cm/s.
In the case of `N=C(N[C@H]1CCc2ccc(-c3ncnc4[nH]ccc34)cc21)SC[C@H](N)C(=O)NCC(=O)O`, in data set [6], the Drug metabolism result is reported as “Metabolite_Detected”.
On the same count and under the same terms, then `N=C(N[C@H]1CCc2ccc(-c3ncnc4[nH]ccc34)cc21)SC[C@H](NC(=O)CC[C@H](N)C(=O)O)C(=O)NCC(=O)O`, with “Metabolite_Detected”.
For the compound `N#CN[C@@H]1c2cc(-c3ncnc4[nH]ccc34)ccc2C[C@H]1O`, the half-life at 20 µM in data set [2] was 0.783 h.
Same read-out and setting: for `N#CNC1CCOc2ccc(-c3ncnc4[nH]ccc34)cc21` (stereo unspecified) the value was 0.6 h; for `N#CNC1CCc2ccc(-c3ncnc4[nH]ccc34)cc21` (stereo unspecified), 1.12 h.

The values above are taken from ChEMBL document CHEMBL4261650, “Identification of Cyanamide-Based Janus Kinase 3 (JAK3) Covalent Inhibitors” (J Med Chem, 2018).
